Test results taken from US20040043055A1 (AJINOMOTO CO. INC., priority 2002, published 2004).

How the values were obtained:
[1] = Example 1: body weight of mice on high fat diet containing L-glutamine, with or without treadmill exercise; type: in vivo, C57BL/6J mice
Experimental: (§1) Fifty male C57BL/6J mice, 9 weeks old, were used herein. […] The experiment was conducted for 16 weeks. The mice exercised on a treadmill at moderate intensity (at 4.0 m/min) for 30 minutes a day, 5 days a week. It is known that oxygen consumption (VO2) strongly correlates with exercise intensity. However, VO2 reaches the plateau at a certain point as exercise intensity increases, which is defined as maximum oxygen consumption (VO2max). Percentage of maximum oxygen consumption (% VO2max) is one of the common ways to indicate the exercise intensity. According to Schefer V. and Talan M. I. (Exp. Gerontol. 31:387 (1996)), a running speed of 3-4 m/min which was the same intensity of exercise used herein produced a VO2 equivalent to 54-58% of the VO2max in adult C57BL/6J mice. In 16 weeks of the experiment, plasma and liver samples were obtained after overnight starvation.
Relative body weight to the LF group in week 5, 10, and 16 are shown in FIGS. 1, 2, and 3, respectively.
Applying to a human, assuming a life span of 70 years, 10 weeks and 4 months for mice correspond to 7 and 12 years for a human, respectively.

[2] = Example 1: fasting plasma insulin concentration in week 16; type: in vivo, C57BL/6J mice; conditions: FIG. 4
Experimental: as §1

[3] = Example 1: liver glycogen content after starvation in week 16; type: in vivo, C57BL/6J mice; conditions: 24 h starvation, L-glutamine plus exercise, FIG. 5
Experimental: The results of glycogen contents in the liver after starvation were the same trends as plasma insulin concentrations (FIG. 5).
as §1

[4] = Example 2: body weight, epididymal fat and abdominal fats after 6 weeks of high fat diet containing L-glutamine; type: in vivo, C57BL/6J mice; conditions: high fat diet containing 3.6% or 6.0% of L-glutamine
Experimental: Forty of male C57BL/6J mice, age 5 weeks, were used herein. […] After 6 weeks of the diet feedings, body weight and epididymal fat weight were measured.

[5] = Solubility limit of L-glutamine in liquid product; type: physicochemical

remaining glycogen content in the liver after starvation [3]: the lowest | solubility limit ([5]; 0° C.): 8.3 g per 473 milliliters | solubility limit ([5]; 18° C.): 12.3 g per 473 milliliters | solubility limit ([5]; 30° C.): 22.7 g per 473 milliliters
SMILES: NC(=O)CC[C@H](N)C(=O)O [L-glutamine]
body weight gain by high fat feeding ([1]; week 5, exercise groups, 6.0% L-glutamine plus exercise (6Q+EX) vs HF+EX, FIG. 1): prevented considerably | rate of body weight gain ([1]; week 5, non-exercise groups, high fat diet containing 6.0% of L-glutamine (6Q) vs HF, FIG. 1): did not reduce the rate of body weight gain | synergistic effect of L-glutamine and exercise on body weight gain ([1]; week 10, 6Q+EX, FIG. 2): synergistic effect lasted for 10 weeks | combined effects on body weight ([1]; week 16, 6Q+EX compared to HF+EX, FIG. 3): combined effects disappeared in week 16, although lower body weight was still observed | plasma insulin concentrations ([2]; L-glutamine administration alone, high fat feeding): reduced plasma insulin concentrations | plasma insulin concentrations ([2]; combination of L-glutamine administration and exercise): the lowest and was close to that of LF group | weights of abdominal fats [4]: decreased in a dose-dependent manner | weights of epididymal fat ([4]; FIG. 7): decreased in a dose-dependent manner | rates of body weight gain ([4]; no exercise, FIG. 6): reduced by L-glutamine administrations in a dose-dependent manner
